Where “and” joins values, the source holds several entries; their conditions need not be identical. Equal entries are not always repeated.
Columns and labels:
[1] = logP by HPLC on reversed-phase columns (C 18), EEC directive 79/831 Annex V.A8; type: physicochemical; conditions: LC-MS; for Log P [b]: neutral range, pH 7.8, 0.001 molar aqueous ammonium hydrogencarbonate and acetonitrile
Method: The logP values were measured according to EEC directive 79/831 Annex V.A8 by HPLC (High Performance Liquid Chromatography) on reversed-phase columns (C 18), using the methods below:
^[a] The LC-MS determination in the acidic range is effected at pH 2.7 with 0.1% aqueous formic acid and acetonitrile (contains 0.1% formic acid) as eluents; linear gradient from 10% acetonitrile to 95% acetonitrile.
^[b] The LC-MS determination in the neutral range is effected at pH 7.8 using 0.001 molar aqueous ammonium hydrogencarbonate solution and acetonitrile as eluents; linear gradient from 10% acetonitrile to 95% acetonitrile.
The calibration is effected with unbranched alkan-2-ones (having 3 to 16 carbon atoms) with known logP values (logP values determined on the basis of the retention times by linear interpolation between two successive alkanones).

[2] = test system: Plasmopara viticola; assay: Plasmopara test (grapevine) / protective; type: in vivo; conditions: young grapevine plants, protective spray, 10 ppm active ingredient, evaluation 6 days after inoculation; 0% = control, 100% = no infection
Method: Plasmopara Test (Grapevine)/Protective
• Solvent: 24.5 parts by weight of acetone • 24.5 parts by weight of dimethylacetamide • Emulsifier: 1 part by weight of alkylaryl polyglycol ether
To produce a suitable active ingredient formulation, 1 part by weight of active ingredient is mixed with the stated amounts of solvent and emulsifier, and the concentrate is diluted with water to the desired concentration.
To test for protective efficacy, young plants are sprayed with the active ingredient formulation at the stated application rate. After the spray coating has dried on, the plants are inoculated with an aqueous spore suspension of Plasmopara viticola and then remain in an incubation cabin at approx. 20° C. and 100% relative air humidity for 1 day. Subsequently, the plants are placed in a greenhouse at approx. 21° C. and approx. 90% air humidity for 4 days. The plants are then moistened and placed in an incubation cabin for 1 day.
Evaluation follows 6 days after the inoculation. 0% means an efficacy which corresponds to that of the control, whereas an efficacy of 100% means that no infection is observed.
In this test, the following inventive compounds show, at an active ingredient concentration of 10 ppm, an efficacy of 70% or more: […]

[3] = test system: Phytophthora infestans; type: in vivo; conditions: young tomato plants, protective spray, 100 ppm active ingredient, evaluation 7 days after inoculation; 0% = control, 100% = no infection
[4] = acidic range, pH 2.7, 0.1% aqueous formic acid and acetonitrile

| SMILES | Log P [a] [1, 4] | Eff. % [2] [%] | Eff. % [3] | Log P [b] [1] | chromatographic logP ([1]; reversed-phase HPLC column (C18), acidic range, pH 2.7, 0.1% aqueous formic acid and acetonitrile, read-out: Log P [a]) |
| --- | --- | --- | --- | --- | --- |
| Cc1ccc(Cl)cc1NC(=O)N1CCC(c2nc(C3=NOC(c4cccc(C=O)c4)C3)cs2)CC1 (stereo not drawn) [Ex. 2] | 3.05[a] | 100 | 100% | – | – |
| CC[S+]([O-])Cc1ccccc1C1CC(c2csc(C3CCN(C(=O)Cn4nc(C(F)(F)F)cc4C)CC3)n2)=NO1 (mixture of isomers) [Ex. 36] | 2.53[a] | – | 100% | – | – |
| C=CCOc1cccc(Cl)c1C1CC(c2csc(C3CCN(C(=O)Nc4cc(Cl)ccc4C)CC3)n2)=NO1 (racemic) [Ex. 39] | 4.21[a]; | 100 | 94% | 4.11[b] | – |
| C#CCOc1cccc(F)c1C1(C)CC(c2csc(C3CCN(C(=O)Cn4nc(C)cc4C(F)F)CC3)n2)=NO1 (racemic) [Ex. 37] | 3.11[a]; | 96 | 94% | 3.12[b]; | – |
| Cc1cc(C(F)(F)F)nn1CC(=O)N1CCC(c2nc(C3=NOC(c4ccccc4C[S+](C)[O-])C3)cs2)CC1 (mixture of isomers) [Ex. 35] | 2.34[a] | – | 100% | – | – |
| C=CCOc1ccccc1C1CC(c2csc(C3CCN(C(=O)Cn4nc(C(F)(F)F)cc4C)CC3)n2)=NO1 (stereo not drawn) [Ex. 30] | 3.86[a]; | 100 | 97% | 3.73[b] | – |
| C=CCOc1cccc(C2CC(c3csc(C4CCN(C(=O)Cn5nc(C(F)(F)F)cc5C)CC4)n3)=NO2)c1 (racemic) [Ex. 41] | 3.62[a]; | 78 | 98% and 97% | 3.68[b]; | – |
| CS(=O)(=O)Nc1ccccc1C1CC(c2csc(C3CCN(C(=O)Cc4cc(C(F)F)ccc4C(F)F)CC3)n2)=NO1 (stereo not drawn) [Ex. 4, N-(2-{3-[2-(1-{[2,5-Bis(difluoromethyl)phenyl]acetyl}piperidin-4-yl)-1,3-thiazol-4-yl]-4,5-dihydro-1,2-oxazol-5-yl}phenyl)methanesulphonamide] | – | 95 | 95% | – | 2.81 |
| Cc1cc(C(F)(F)F)nn1CC(=O)N1CCC(c2nc(C3=NOC(c4ccc(OC(=O)C5CC5)cc4)C3)cs2)CC1 (racemic) [Ex. 47] | 3.49[a]; | 86 | 100% | 3.4[b] | – |
| Cc1cc(C(F)(F)F)nn1CC(=O)N1CCC(c2nc(C3=NOC(c4c(Cl)cccc4OC(=O)C4CC4)C3)cs2)CC1 (racemic) [Ex. 48] | 3.73[a]; | 95 | 70% | 3.64[b] | – |
| C=CCOc1cccc(F)c1C1CC(c2csc(C3CCN(C(=O)Nc4cc(C)ccc4C)CC3)n2)=NO1 (stereo not drawn) [Ex. 25] | 3.64[a]; | 100 | 100% | 3.62[b] | – |
| COCCOc1cccc(F)c1C1CC(c2csc(C3CCN(C(=O)Cn4nc(C(F)(F)F)cc4C)CC3)n2)=NO1 (racemic) [Ex. 49] | 3.28[a]; | 100 | 90% | 3.17[b] | – |
| Cc1cc(C(F)(F)F)nn1CC(=O)N1CCC(c2nc(C3=NOC(c4ccccc4COCC(F)(F)F)C3)cs2)CC1 (racemic) [Ex. 43] | 3.77[a] | 83 | 97% | – | – |
| C#CCOc1cccc(F)c1C1CC(c2csc(C3CCN(C(=O)Cn4nc(C(F)(F)F)cc4C)CC3)n2)=NO1 (stereo not drawn) [Ex. 12] | 3.35[a]; | 100 | 75% | 3.27[b] | – |
| C#CCOc1cc(C)ccc1C1CC(c2csc(C3CCN(C(=O)Cn4nc(C(F)F)cc4C)CC3)n2)=NO1 (stereo not drawn) [Ex. 23] | 3.23[a]; | – | – | 3.23[b]; | – |
| C#CCOc1c(F)cccc1C1CC(c2csc(C3CCN(C(=O)Cn4nc(C(F)(F)F)cc4C)CC3)n2)=NO1 (stereo not drawn) [Ex. 9] | – | 100 | 94% | – | – |
| C=CCOc1cc(C)ccc1C1CC(c2csc(C3CCN(C(=O)Cn4nc(C(F)F)cc4C)CC3)n2)=NO1 (stereo not drawn) [Ex. 22] | 3.62[a]; | – | – | 3.66[b]; | – |
| C#CCOc1cc(Cl)cc(Cl)c1C1CC(c2csc(C3CCN(C(=O)Cn4nc(C(F)F)cc4C)CC3)n2)=NO1 (stereo not drawn) [Ex. 21] | 3.66[a]; | – | – | 3.57[b] | – |
| C#CCOc1ccccc1C1CC(c2csc(C3CCN(C(=O)Cn4nc(C(F)(F)F)cc4C)CC3)n2)=NO1 (stereo not drawn) [Ex. 13] | 3.47[a]; | 100 | 89% | 3.37[b] | – |

| SMILES | Log P [a] [1, 4] | Eff. % [2] [%] | Eff. % [3] | Log P [b] [1] | chromatographic logP ([1]; reversed-phase HPLC column (C18), acidic range, pH 2.7, 0.1% aqueous formic acid and acetonitrile, read-out: Log P [a]) |
| --- | --- | --- | --- | --- | --- |
| O=C(Oc1ccccc1C1CC(c2csc(C3CCN(C(=O)Cn4nc(C(F)(F)F)cc4C(F)(F)F)CC3)n2)=NO1)C1CC1 (stereo not drawn) [Ex. 14] | 4.04[a] | – | – | – | – |
| Cc1cc(C(F)(F)F)nn1CC(=O)N1CCC(c2nc(C3=NOC(c4c(F)cccc4C=O)C3)cs2)CC1 (racemic) [Ex. 53] | 3.03[a]; | 100 | 98% | 2.95[b] | – |
| Cc1cc(C(F)(F)F)nn1CC(=O)N1CCC(c2nc(C3=NOC(c4cccc(F)c4OC(=O)C4CC4)C3)cs2)CC1 (racemic) [Ex. 54] | 3.62[a]; | 91 | 94% | 3.5[b] | – |
| C#CCOc1ccccc1C1CC(c2csc(C3CCN(C(=O)Cn4nc(C)cc4C(F)F)CC3)n2)=NO1 (stereo not drawn) [Ex. 29] | 3.03[a] | 100 | 100% | – | – |
| COCCOCc1ccccc1C1CC(c2csc(C3CCN(C(=O)Cn4nc(C(F)(F)F)cc4C)CC3)n2)=NO1 (racemic) [Ex. 44] | 3.28[a] | – | 94% | – | – |
| C=CCOc1ccccc1C1CC(c2csc(C3CCN(C(=O)Cn4nc(C)cc4C(F)F)CC3)n2)=NO1 (stereo not drawn) [Ex. 18] | 3.42[a]; | 95 | 100% | 3.33[b] | – |
| C#CCOc1cccc(C2CC(c3csc(C4CCN(C(=O)Cn5nc(C(F)(F)F)cc5C)CC4)n3)=NO2)c1 (stereo not drawn) [Ex. 10] | 3.49[a]; | – | – | 3.3[b] | – |
| C#CCOc1cccc(F)c1C1CC(c2csc(C3CCN(C(=O)Cn4nc(C(F)F)cc4C)CC3)n2)=NO1 (stereo not drawn) [Ex. 31] | 2.92[a] | – | – | – | – |
| C=CCOc1cc(Cl)cc(Cl)c1C1CC(c2csc(C3CCN(C(=O)Cn4nc(C(F)F)cc4C)CC3)n2)=NO1 (stereo not drawn) [Ex. 24] | 3.95[a]; | – | – | 3.97[b]; | – |
| C=CCOc1ccc(F)c(C2CC(c3csc(C4CCN(C(=O)Cn5nc(C(F)(F)F)cc5C)CC4)n3)=NO2)c1F (stereo not drawn) [Ex. 19] | – | 98 | 98% | – | – |
| C#CCOc1cc(C)ccc1C1CC(c2csc(C3CCN(C(=O)Cn4nc(C(F)(F)F)cc4C)CC3)n2)=NO1 (stereo not drawn) [Ex. 26] | 3.67[a]; | – | 100% | 3.61[b] | – |
| COc1ccc(C2CC(c3csc(C4CCN(C(=O)Cn5nc(C(F)F)cc5C)CC4)n3)=NO2)c(OCC2CC2)c1 (stereo not drawn) [Ex. 27] | 3.5[a] | – | – | – | – |
| C#CCOc1cc(Cl)ccc1C1CC(c2csc(C3CCN(C(=O)Cn4nc(C(F)F)cc4C)CC3)n2)=NO1 (stereo not drawn) [Ex. 20] | 3.37[a]; | – | – | 3.36[b] | – |
| Cc1cc(C(F)F)nn1CC(=O)N1CCC(c2nc(C3=NOC(c4c(F)cccc4OCC4CC4)C3)cs2)CC1 (stereo not drawn) [Ex. 28] | 3.44[a] | – | – | – | – |
| C#CCOc1ccc(F)c(C2CC(c3csc(C4CCN(C(=O)Cn5nc(C(F)(F)F)cc5C)CC4)n3)=NO2)c1F (stereo not drawn) [Ex. 8] | – | 100 | 100% | – | – |
| Cc1cc(C(F)(F)F)nn1CC(=O)N1CCC(c2nc(C3=NOC(c4ccccc4NS(C)(=O)=O)C3)cs2)CC1 (stereo not drawn) [Ex. 5, N-(2-{3-[2-(1-{[5-Methyl-3-(trifluoromethyl)-1H-pyrazol-1-yl]acetyl}piperidin-4-yl)-1,3-thiazol-4-yl]-4,5-dihydro-1,2-oxazol-5-yl}phenyl)methanesulphonamide] | – | 84 | 95% | – | – |
| O=C(Cn1nc(C(F)(F)F)cc1C(F)(F)F)N1CCC(c2nc(C3=NOC(c4ccccc4OCC4CC4)C3)cs2)CC1 (stereo not drawn) [Ex. 16] | 4.59[a] | 96 | – | – | – |
| Cc1cc(C(F)(F)F)nn1CC(=O)N1CCC(c2nc(C3=NOC(c4ccccc4OCC4CC4)C3)cs2)CC1 (stereo not drawn) [Ex. 17] | 4.03[a] | 92 | – | – | – |
| CC#CCOc1cc(OC)ccc1C1CC(c2csc(C3CCN(C(=O)Cn4nc(C(F)F)cc4C)CC3)n2)=NO1 (stereo not drawn) [Ex. 15] | 3.28[a] | – | – | – | – |
